Measurements taken from the NIST ThermoML archive (doi:10.1016/j.tca.2017.09.024).
Numbers after ± are expanded uncertainties.

Details: Crystal; DTA

Normal melting temperature	Structure (SMILES)
-41.9 ± 2 °C	Fc1ccccc1 [fluorobenzene]
5.6 ± 2 °C	c1ccccc1 [benzene]
